Results reported in US6693216B2, “Calcium double salts” (Nutrinova Nutrition Specialties & Food Ingredients GmbH, priority 2000, dated 2004).
Like-named read-outs stand apart in the source and are kept apart here.

Tests used:
[1] = system: all microorganisms used
[2] = system: Gram-positive bacteria; conditions: Part II, 1 g/l in apple juice pH 4.5, 25° C.
[3] = system: Lactic acid bacteria; conditions: Part II, 1 g/l in apple juice pH 4.5, 25° C.
[4] = system: Acetic acid bacteria; conditions: Part II, 1 g/l in apple juice pH 4.5, 25° C.
[5] = system: Gram-negative bacteria; conditions: Part II, 1 g/l in apple juice pH 4.5, 25° C.
[6] = system: Molds II; conditions: Part II, 1 g/l in apple juice pH 4.5, 25° C.
[7] = system: Thermophilic bacilli; conditions: Part II, 1 g/l in apple juice pH 4.5, 25° C.
[8] = system: Bacilli; conditions: Part II, 1 g/l in apple juice pH 4.5, 25° C.
[9] = sealed
From the text: Salts prepared as in example 1 were dried, stored under the specified conditions without the addition of other substances and checked at regular intervals visually for discoloration: […]

[10] = system: Yeasts; conditions: Part II, 1 g/l in apple juice pH 4.5, 25° C.
[11] = system: Clostridia; conditions: Part II, 1 g/l in apple juice pH 4.5, 25° C.
[12] = system: Molds I; conditions: Part II, 1 g/l in apple juice pH 4.5, 25° C.
[13] = 1 day after inoculation (2.7 × 10^4)
[14] = 3 days after inoculation (2.7 × 10^4)
[15] = 7 days after inoculation (2.7 × 10^4)
[16] = 14 days after inoculation (2.7 × 10^4)

Which “Preservative action against the microorganisms used” value ([1]; 1 g/l in apple juice pH 4.5, up to 14 days) does the source give for `C/C=C/C=C/C(=O)[O-].O=C[O-].[Ca+2]` here?
Its value is “acts well and persistently against all microorganisms used, except for acetic acid bacteria and bacilli”.

And the “Preservative action compared with the single salts” value ([1]; same concentration, 1 g/l in apple juice pH 4.5)?
Its value is “acts surprisingly better than calcium formate (in particular against lactic acid bacteria, yeasts and molds) or calcium sorbate (in particular against Gram-negative bacteria) used alone”.

What about the “Number of surviving microorganisms per g of contaminated sample, Gram-positive bacteria” value ([2]; 1 day after inoculation (2.1 × 10^4)) of the same compound?
The value was 2.1 × 10^4 CFU/g.

And the “Number of surviving microorganisms per g of contaminated sample, Gram-positive bacteria” value ([2]; 3 days after inoculation (2.1 × 10^4))?
Its value is 8.5 × 10^3 CFU/g.

What about the “Number of surviving microorganisms per g of contaminated sample, Gram-positive bacteria” value ([2]; 7 days after inoculation (2.1 × 10^4)) of the same compound?
Its value is 6.8 × 10^2 CFU/g.

What about the “Number of surviving microorganisms per g of contaminated sample, Gram-positive bacteria” value ([2]; 14 days after inoculation (2.1 × 10^4)) of the same compound?
The value was less than 10 CFU/g.

What about the “Number of surviving microorganisms per g of contaminated sample, Lactic acid bacteria” value [3, 13] of the same compound?
Its value is 3.9 × 10^3 CFU/g.

What about the “Number of surviving microorganisms per g of contaminated sample, Lactic acid bacteria” value [3, 14] of the same compound?
The value was 1.5 × 10^3 CFU/g.

And the “Number of surviving microorganisms per g of contaminated sample, Lactic acid bacteria” value [3, 15]?
Its value is less than 10 CFU/g.

What about the “Number of surviving microorganisms per g of contaminated sample, Lactic acid bacteria” value [3, 16] of the same compound?
The value was less than 10 CFU/g.

What about the “Number of surviving microorganisms per g of contaminated sample, Acetic acid bacteria” value ([4]; 1 day after inoculation (2.8 × 10^4)) of the same compound?
Its value is 2.1 × 10^4 CFU/g.

And the “Number of surviving microorganisms per g of contaminated sample, Acetic acid bacteria” value ([4]; 3 days after inoculation (2.8 × 10^4))?
The value was 1.6 × 10^4 CFU/g.

And the “Number of surviving microorganisms per g of contaminated sample, Acetic acid bacteria” value ([4]; 7 days after inoculation (2.8 × 10^4))?
Its value is 7.6 × 10^3 CFU/g.

What about the “Number of surviving microorganisms per g of contaminated sample, Acetic acid bacteria” value ([4]; 14 days after inoculation (2.8 × 10^4)) of the same compound?
The value was 2.6 × 10^4 CFU/g.

And the “Number of surviving microorganisms per g of contaminated sample, Gram-negative bacteria” value [5, 13]?
Its value is 1.7 × 10^4 CFU/g.

And the “Number of surviving microorganisms per g of contaminated sample, Gram-negative bacteria” value [5, 14]?
Its value is 2.5 × 10^3 CFU/g.

And the “Number of surviving microorganisms per g of contaminated sample, Gram-negative bacteria” value [5, 15]?
Its value is 2.0 × 10^3 CFU/g.

And the “Number of surviving microorganisms per g of contaminated sample, Gram-negative bacteria” value [5, 16]?
The value was less than 10 CFU/g.

What about the “Number of surviving microorganisms per g of contaminated sample, Molds II” value (shortened to “Number … per g of contaminated sample, Molds II”) ([6]; 1 day after inoculation (2.5 × 10^4)) of the same compound?
Its value is 3.9 × 10^3 CFU/g.

What about the “Number … per g of contaminated sample, Molds II” value ([6]; 3 days after inoculation (2.5 × 10^4)) of the same compound?
Its value is less than 100 CFU/g.

And the “Number … per g of contaminated sample, Molds II” value ([6]; 7 days after inoculation (2.5 × 10^4))?
The value was less than 10 CFU/g.

What about the “Number … per g of contaminated sample, Molds II” value ([6]; 14 days after inoculation (2.5 × 10^4)) of the same compound?
The value was less than 10 CFU/g.

What about the “Number of surviving microorganisms per g of contaminated sample, Thermophilic bacilli” value ([7]; 1 day after inoculation (1.3 × 10^4)) of the same compound?
The value was 2.0 × 10^3 CFU/g.

What about the “Number of surviving microorganisms per g of contaminated sample, Thermophilic bacilli” value ([7]; 3 days after inoculation (1.3 × 10^4)) of the same compound?
Its value is 3.0 × 10^2 CFU/g.

What about the “Number of surviving microorganisms per g of contaminated sample, Thermophilic bacilli” value ([7]; 7 days after inoculation (1.3 × 10^4)) of the same compound?
The value was less than 10 CFU/g.

What about the “Number of surviving microorganisms per g of contaminated sample, Thermophilic bacilli” value ([7]; 14 days after inoculation (1.3 × 10^4)) of the same compound?
Its value is less than 10 CFU/g.

What about the “Number of surviving microorganisms per g of contaminated sample, Bacilli” value (from here on “Number … per g of contaminated sample, Bacilli”) ([8]; 1 day after inoculation (3.3 × 10^4)) of the same compound?
The value was 3.2 × 10^3 CFU/g.

What about the “Number … per g of contaminated sample, Bacilli” value ([8]; 3 days after inoculation (3.3 × 10^4)) of the same compound?
The value was 1.8 × 10^3 CFU/g.

What about the “Number … per g of contaminated sample, Bacilli” value ([8]; 7 days after inoculation (3.3 × 10^4)) of the same compound?
The value was 1.7 × 10^3 CFU/g.

What about the “Number … per g of contaminated sample, Bacilli” value ([8]; 14 days after inoculation (3.3 × 10^4)) of the same compound?
The value was 1.8 × 10^3 CFU/g.

What about the “Time after yellow-brown discoloration of a 1% strength aqueous solution” value (“Time … of a 1% strength aqueous solution” below) ([9]; dark at 7° C.) of the same compound?
Its value is 12 months/>12 months.

What about the “Time after yellow-brown discoloration of the powder” value (from here on “Time … of the powder”) ([9]; dark at 7° C.) of the same compound?
Its value is greater than 12 months />12 months.

And the “Time … of a 1% strength aqueous solution” value ([9]; dark at 25° C.)?
Its value is 12 months/>12 months.

And the “Time … of the powder” value ([9]; dark at 25° C.)?
The value was greater than 12 months />12 months.

What about the “Time … of a 1% strength aqueous solution” value ([9]; under sunlight at 7° C.) of the same compound?
Its value is 12 months/>12 months.

What about the “Time … of the powder” value ([9]; under sunlight at 7° C.) of the same compound?
The value was 12 months/>12 months.

And the “Time … of a 1% strength aqueous solution” value ([9]; under sunlight at 25° C.)?
The value was 12 months/>12 months.

And the “Time … of the powder” value ([9]; under sunlight at 25° C.)?
The value was 12 months/>12 months.

What about the “Number of surviving microorganisms per g of contaminated sample, Yeasts” value (shortened to “Number … per g of contaminated sample, Yeasts”) ([10]; 1 day after inoculation (2.6 × 10^4)) of the same compound?
The value was 1.3 × 10^4 CFU/g.

And the “Number … per g of contaminated sample, Yeasts” value ([10]; 3 days after inoculation (2.6 × 10^4))?
The value was 4.3 × 10^3 CFU/g.

What about the “Number … per g of contaminated sample, Yeasts” value ([10]; 7 days after inoculation (2.6 × 10^4)) of the same compound?
The value was less than 100 CFU/g.

And the “Number … per g of contaminated sample, Yeasts” value ([10]; 14 days after inoculation (2.6 × 10^4))?
The value was less than 10 CFU/g.

And the “Number of surviving microorganisms per g of contaminated sample, Clostridia” value ([11]; 1 day after inoculation (2.9 × 10^4))?
The value was 1.1 × 10^3 CFU/g.

And the “Number of surviving microorganisms per g of contaminated sample, Clostridia” value ([11]; 3 days after inoculation (2.9 × 10^4))?
Its value is less than 100 CFU/g.

What about the “Number of surviving microorganisms per g of contaminated sample, Clostridia” value ([11]; 7 days after inoculation (2.9 × 10^4)) of the same compound?
The value was 100 CFU/g.

And the “Number of surviving microorganisms per g of contaminated sample, Clostridia” value ([11]; 14 days after inoculation (2.9 × 10^4))?
The value was less than 10 CFU/g.

What about the “Number of surviving microorganisms per g of contaminated sample, Molds I” value ([12]; 1 day after inoculation (2.2 × 10^4)) of the same compound?
Its value is 3.8 × 10^3 CFU/g.

And the “Number of surviving microorganisms per g of contaminated sample, Molds I” value ([12]; 3 days after inoculation (2.2 × 10^4))?
The value was 2.0 × 10^2 CFU/g.

What about the “Number of surviving microorganisms per g of contaminated sample, Molds I” value ([12]; 7 days after inoculation (2.2 × 10^4)) of the same compound?
Its value is 25 CFU/g.

And the “Number of surviving microorganisms per g of contaminated sample, Molds I” value ([12]; 14 days after inoculation (2.2 × 10^4))?
Its value is 10 CFU/g.
